Experiments:
[1] = Growth inhibition of human M07e cells; type: functional; conditions: Homo sapiens, M-07e
[2] = biological target: Phosphatidylinositol 4-phosphate 5-kinase type-1 alpha (Homo sapiens) (UniProt Q99755); experiment: Inhibition of wild-type human full length PIP5K1A (M1 to H562 residues) expressed in bacterial expression system assessed as residual activity at 1 uM by Kinomescan method relative to control
[3] = biological target: Ankyrin repeat and protein kinase domain-containing protein 1 (Homo sapiens) (UniProt Q8NFD2); experiment: Inhibition of wild-type human partial length ANKK1 (M1 to A305 residues) expressed in mammalian expression system assessed as residual activity at 1 uM by Kinomescan method relative to control
[4] = biological target: Cyclin-dependent kinase 18 (Homo sapiens) (UniProt Q07002); experiment: Inhibition of wild-type human full length PCTK3 (M3 to F474 residues) expressed in bacterial expression system assessed as residual activity at 1 uM by Kinomescan method relative to control
[5] = system: Mast/stem cell growth factor receptor Kit (Homo sapiens), P10721 [V559D,T670I]; experiment: Inhibition of human partial length KIT V559D/T670I double mutant (Y545 to D952 residues) expressed in bacterial expression system assessed as residual activity at 1 uM by Kinomescan method relative to control
[6] = biological target: Maternal embryonic leucine zipper kinase (Homo sapiens) (UniProt Q14680); experiment: Inhibition of wild-type human full length MELK (M1 to V651 residues) expressed in bacterial expression system assessed as residual activity at 1 uM by Kinomescan method relative to control
[7] = biological target: Casein kinase I isoform gamma-2 (Homo sapiens) (UniProt P78368); experiment: Inhibition of wild-type human full length CSNK1G2 (M1 to K415 residues) expressed in bacterial expression system assessed as residual activity at 1 uM by Kinomescan method relative to control
[8] = biological target: Vascular endothelial growth factor receptor 3 (Homo sapiens) (UniProt P35916); experiment: Inhibition of wild-type human partial length FLT4 (E821 to E1196 residues) expressed in bacterial expression system assessed as residual activity at 1 uM by Kinomescan method relative to control
Chain of Vascular endothelial growth factor receptor 3 (Homo sapiens) (P35916 whole entry, the tested form may be a part): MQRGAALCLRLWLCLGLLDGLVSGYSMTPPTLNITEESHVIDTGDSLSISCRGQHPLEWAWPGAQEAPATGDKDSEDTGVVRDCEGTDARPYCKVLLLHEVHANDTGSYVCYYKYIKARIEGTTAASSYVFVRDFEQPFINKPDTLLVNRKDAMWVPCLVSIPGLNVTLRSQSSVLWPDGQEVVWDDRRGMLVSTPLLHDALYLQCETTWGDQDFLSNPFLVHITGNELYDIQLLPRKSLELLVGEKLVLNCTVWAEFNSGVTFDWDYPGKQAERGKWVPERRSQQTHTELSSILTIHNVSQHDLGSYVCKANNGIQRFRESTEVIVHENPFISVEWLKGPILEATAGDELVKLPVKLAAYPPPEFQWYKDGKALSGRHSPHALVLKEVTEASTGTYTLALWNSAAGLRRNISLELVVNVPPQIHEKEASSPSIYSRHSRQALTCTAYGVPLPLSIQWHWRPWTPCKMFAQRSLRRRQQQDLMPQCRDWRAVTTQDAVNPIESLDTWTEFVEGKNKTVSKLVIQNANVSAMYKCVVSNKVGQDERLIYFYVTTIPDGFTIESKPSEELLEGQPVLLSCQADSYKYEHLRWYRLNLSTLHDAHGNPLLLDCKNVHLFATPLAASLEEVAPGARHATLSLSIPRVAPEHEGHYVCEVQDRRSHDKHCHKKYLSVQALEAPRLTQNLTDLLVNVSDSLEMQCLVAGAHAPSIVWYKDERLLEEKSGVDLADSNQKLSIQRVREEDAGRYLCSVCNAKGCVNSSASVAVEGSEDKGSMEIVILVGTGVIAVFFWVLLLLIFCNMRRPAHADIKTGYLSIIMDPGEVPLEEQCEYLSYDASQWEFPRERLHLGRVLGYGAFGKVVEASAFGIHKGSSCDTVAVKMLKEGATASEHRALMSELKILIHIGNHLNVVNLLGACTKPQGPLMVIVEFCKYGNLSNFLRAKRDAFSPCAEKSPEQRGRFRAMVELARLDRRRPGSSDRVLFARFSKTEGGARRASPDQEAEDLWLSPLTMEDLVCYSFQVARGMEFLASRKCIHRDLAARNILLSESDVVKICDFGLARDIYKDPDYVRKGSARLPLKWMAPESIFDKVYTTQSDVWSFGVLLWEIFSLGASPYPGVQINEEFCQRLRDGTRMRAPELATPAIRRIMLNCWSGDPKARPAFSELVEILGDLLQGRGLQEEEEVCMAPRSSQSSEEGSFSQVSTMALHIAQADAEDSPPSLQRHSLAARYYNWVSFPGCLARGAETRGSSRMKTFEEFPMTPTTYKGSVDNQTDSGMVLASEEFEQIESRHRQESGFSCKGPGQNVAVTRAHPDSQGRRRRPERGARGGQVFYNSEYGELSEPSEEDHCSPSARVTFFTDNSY

[9] = biological target: Serine/threonine-protein kinase 38 (Homo sapiens) (UniProt Q15208); experiment: Inhibition of wild-type human partial length NDR1 (N33 to E449 residues) expressed in mammalian expression system assessed as residual activity at 1 uM by Kinomescan method relative to control
[10] = biological target: Activin receptor type-1-like (Homo sapiens) (UniProt P37023); experiment: Inhibition of wild-type human ACVRL1 (L164 to Q503 residues) expressed in bacterial expression system assessed as residual activity at 1 uM by Kinomescan method relative to control
[11] = biological target: Mitogen-activated protein kinase kinase kinase 13 (Homo sapiens) (UniProt O43283); experiment: Inhibition of wild-type human full length LZK (M1 to W966 residues) expressed in mammalian expression system assessed as residual activity at 1 uM by Kinomescan method relative to control
[12] = biological target: Serine/threonine-protein kinase 36 (Homo sapiens) (UniProt Q9NRP7); experiment: Inhibition of wild-type human partial length STK36 (M1 to T271 residues) expressed in bacterial expression system assessed as residual activity at 1 uM by Kinomescan method relative to control
Chain of Serine/threonine-protein kinase 36 (Homo sapiens) (Q9NRP7 whole entry, the tested form may be a part, canonical isoform): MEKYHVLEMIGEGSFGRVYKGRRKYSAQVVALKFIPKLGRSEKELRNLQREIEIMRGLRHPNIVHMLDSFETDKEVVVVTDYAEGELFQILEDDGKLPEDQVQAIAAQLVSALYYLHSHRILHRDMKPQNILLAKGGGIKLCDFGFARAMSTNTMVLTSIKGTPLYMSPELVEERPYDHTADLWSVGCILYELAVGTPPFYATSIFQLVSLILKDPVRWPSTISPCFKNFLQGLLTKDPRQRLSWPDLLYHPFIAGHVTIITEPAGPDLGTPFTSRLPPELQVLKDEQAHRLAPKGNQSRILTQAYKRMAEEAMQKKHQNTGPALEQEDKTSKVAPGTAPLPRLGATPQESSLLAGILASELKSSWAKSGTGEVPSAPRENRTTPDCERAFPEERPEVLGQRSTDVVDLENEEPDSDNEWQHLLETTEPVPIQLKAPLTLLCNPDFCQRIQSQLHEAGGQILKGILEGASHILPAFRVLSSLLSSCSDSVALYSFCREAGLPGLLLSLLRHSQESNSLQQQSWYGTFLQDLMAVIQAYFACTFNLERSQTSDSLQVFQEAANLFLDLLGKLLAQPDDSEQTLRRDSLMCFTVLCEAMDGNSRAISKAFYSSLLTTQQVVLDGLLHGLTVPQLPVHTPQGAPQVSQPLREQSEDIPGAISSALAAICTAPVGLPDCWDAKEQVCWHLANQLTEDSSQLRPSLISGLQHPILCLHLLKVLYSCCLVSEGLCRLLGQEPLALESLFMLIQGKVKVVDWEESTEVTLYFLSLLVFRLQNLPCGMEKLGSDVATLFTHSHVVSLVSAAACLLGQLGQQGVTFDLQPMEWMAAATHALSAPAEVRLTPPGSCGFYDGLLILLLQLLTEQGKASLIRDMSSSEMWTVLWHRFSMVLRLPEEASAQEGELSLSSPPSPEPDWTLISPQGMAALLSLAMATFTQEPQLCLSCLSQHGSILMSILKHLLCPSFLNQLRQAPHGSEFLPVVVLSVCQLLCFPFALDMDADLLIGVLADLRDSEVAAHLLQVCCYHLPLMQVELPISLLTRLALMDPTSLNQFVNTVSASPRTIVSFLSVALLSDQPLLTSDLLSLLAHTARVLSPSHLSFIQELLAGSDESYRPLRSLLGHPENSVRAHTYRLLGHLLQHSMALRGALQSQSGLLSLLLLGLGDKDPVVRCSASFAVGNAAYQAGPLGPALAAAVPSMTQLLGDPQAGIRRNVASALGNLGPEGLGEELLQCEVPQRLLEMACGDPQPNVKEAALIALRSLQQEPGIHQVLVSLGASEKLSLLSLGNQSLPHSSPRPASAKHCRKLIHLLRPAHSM

[13] = biological target: Casein kinase I isoform gamma-3 (Homo sapiens) (UniProt Q9Y6M4); experiment: Inhibition of wild-type human full length CSNK1G3 (M1 to K447 residues) expressed in bacterial expression system assessed as residual activity at 1 uM by Kinomescan method relative to control
[14] = biological target: Serine/threonine-protein kinase RIO2 (Homo sapiens) (UniProt Q9BVS4); experiment: Inhibition of wild-type human partial length RIOK2 (M1 to D313 residues) expressed in mammalian expression system assessed as residual activity at 1 uM by Kinomescan method relative to control
Chain of Serine/threonine-protein kinase RIO2 (Homo sapiens) (Q9BVS4 whole entry, looked up, the tested form may be a part): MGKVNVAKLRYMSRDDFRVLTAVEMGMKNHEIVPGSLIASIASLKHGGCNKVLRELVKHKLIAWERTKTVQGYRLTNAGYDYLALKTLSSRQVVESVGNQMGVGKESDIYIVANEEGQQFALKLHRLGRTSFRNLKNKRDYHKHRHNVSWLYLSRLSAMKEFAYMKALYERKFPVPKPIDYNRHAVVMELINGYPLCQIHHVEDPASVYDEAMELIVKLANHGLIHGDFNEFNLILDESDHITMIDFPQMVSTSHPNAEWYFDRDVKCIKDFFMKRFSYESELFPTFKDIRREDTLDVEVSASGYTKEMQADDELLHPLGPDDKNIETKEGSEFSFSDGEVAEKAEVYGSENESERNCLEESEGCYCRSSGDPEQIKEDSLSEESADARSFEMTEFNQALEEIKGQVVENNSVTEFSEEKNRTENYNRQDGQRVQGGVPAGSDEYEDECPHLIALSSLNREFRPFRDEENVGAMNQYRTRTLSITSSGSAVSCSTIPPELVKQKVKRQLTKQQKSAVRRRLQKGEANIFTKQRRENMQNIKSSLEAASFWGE

[15] = biological target: Tyrosine-protein kinase Blk (Homo sapiens) (UniProt P51451); experiment: Inhibition of wild-type human partial length BLK (G211 to L503 residues) expressed in bacterial expression system assessed as residual activity at 1 uM by Kinomescan method relative to control
[16] = biological target: Platelet-derived growth factor receptor alpha (Homo sapiens) (UniProt P16234); experiment: Inhibition of wild-type human partial length PDGFRA (V575 to D1002 residues) expressed in mammalian expression system assessed as residual activity at 1 uM by Kinomescan method relative to control
[17] = biological target: cAMP-dependent protein kinase catalytic subunit alpha (Homo sapiens) (UniProt P17612); experiment: Inhibition of wild-type human partial length PKAC-alpha (G10 to F351 residues) expressed in bacterial expression system assessed as residual activity at 1 uM by Kinomescan method relative to control
[18] = biological target: Mitogen-activated protein kinase kinase kinase kinase 5 (Homo sapiens) (UniProt Q9Y4K4); experiment: Inhibition of wild-type human partial length MAP4K5 (M1 to P297 residues) expressed in bacterial expression system assessed as residual activity at 1 uM by Kinomescan method relative to control
Pfeiffer = experiment: Growth inhibition of human Pfeiffer cells; type: functional; conditions: Homo sapiens, Pfeiffer
[19] = biological target: Protein kinase C theta type (Homo sapiens) (UniProt Q04759); experiment: Inhibition of wild-type human partial length PRKCQ (L350 to S706 residues) expressed in bacterial expression system assessed as residual activity at 1 uM by Kinomescan method relative to control
[20] = biological target: Proto-oncogene tyrosine-protein kinase receptor Ret (Homo sapiens) (UniProt P07949); experiment: Inhibition of wild-type human partial length RET (E713 to D1014 residues) expressed in bacterial expression system assessed as residual activity at 1 uM by Kinomescan method relative to control
[21] = biological target: cGMP-dependent protein kinase 1 (Homo sapiens) (UniProt Q13976); experiment: Inhibition of wild-type human partial length PRKG1 (L339 to F686 residues) expressed in bacterial expression system assessed as residual activity at 1 uM by Kinomescan method relative to control
[22] = biological target: Cyclin-dependent kinase 9 (Homo sapiens) (UniProt P50750); experiment: Inhibition of wild-type human full length CDK9 (M1 to F372 residues) expressed in bacterial expression system assessed as residual activity at 1 uM by Kinomescan method relative to control
Chain of Cyclin-dependent kinase 9 (Homo sapiens) (P50750 whole entry, the tested form may be a part): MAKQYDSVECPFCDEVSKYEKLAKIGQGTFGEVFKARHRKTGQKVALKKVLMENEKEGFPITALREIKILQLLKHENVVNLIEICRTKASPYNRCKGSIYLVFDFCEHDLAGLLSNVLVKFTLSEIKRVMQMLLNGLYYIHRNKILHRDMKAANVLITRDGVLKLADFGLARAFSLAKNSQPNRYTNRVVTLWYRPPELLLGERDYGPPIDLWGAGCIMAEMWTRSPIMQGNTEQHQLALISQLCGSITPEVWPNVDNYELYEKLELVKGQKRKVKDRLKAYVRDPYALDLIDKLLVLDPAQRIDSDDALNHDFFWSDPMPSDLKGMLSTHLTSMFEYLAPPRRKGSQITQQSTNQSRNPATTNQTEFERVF

[23] = biological target: Tyrosine-protein kinase JAK3 (Homo sapiens) (UniProt P52333); experiment: Inhibition of wild-type human partial length JAK3 JH1 catalytic domain (I781 to S1124 residues) expressed in mammalian expression system assessed as residual activity at 1 uM by Kinomescan method relative to control
Chain of Tyrosine-protein kinase JAK3 (Homo sapiens) (P52333 whole entry, the tested form may be a part): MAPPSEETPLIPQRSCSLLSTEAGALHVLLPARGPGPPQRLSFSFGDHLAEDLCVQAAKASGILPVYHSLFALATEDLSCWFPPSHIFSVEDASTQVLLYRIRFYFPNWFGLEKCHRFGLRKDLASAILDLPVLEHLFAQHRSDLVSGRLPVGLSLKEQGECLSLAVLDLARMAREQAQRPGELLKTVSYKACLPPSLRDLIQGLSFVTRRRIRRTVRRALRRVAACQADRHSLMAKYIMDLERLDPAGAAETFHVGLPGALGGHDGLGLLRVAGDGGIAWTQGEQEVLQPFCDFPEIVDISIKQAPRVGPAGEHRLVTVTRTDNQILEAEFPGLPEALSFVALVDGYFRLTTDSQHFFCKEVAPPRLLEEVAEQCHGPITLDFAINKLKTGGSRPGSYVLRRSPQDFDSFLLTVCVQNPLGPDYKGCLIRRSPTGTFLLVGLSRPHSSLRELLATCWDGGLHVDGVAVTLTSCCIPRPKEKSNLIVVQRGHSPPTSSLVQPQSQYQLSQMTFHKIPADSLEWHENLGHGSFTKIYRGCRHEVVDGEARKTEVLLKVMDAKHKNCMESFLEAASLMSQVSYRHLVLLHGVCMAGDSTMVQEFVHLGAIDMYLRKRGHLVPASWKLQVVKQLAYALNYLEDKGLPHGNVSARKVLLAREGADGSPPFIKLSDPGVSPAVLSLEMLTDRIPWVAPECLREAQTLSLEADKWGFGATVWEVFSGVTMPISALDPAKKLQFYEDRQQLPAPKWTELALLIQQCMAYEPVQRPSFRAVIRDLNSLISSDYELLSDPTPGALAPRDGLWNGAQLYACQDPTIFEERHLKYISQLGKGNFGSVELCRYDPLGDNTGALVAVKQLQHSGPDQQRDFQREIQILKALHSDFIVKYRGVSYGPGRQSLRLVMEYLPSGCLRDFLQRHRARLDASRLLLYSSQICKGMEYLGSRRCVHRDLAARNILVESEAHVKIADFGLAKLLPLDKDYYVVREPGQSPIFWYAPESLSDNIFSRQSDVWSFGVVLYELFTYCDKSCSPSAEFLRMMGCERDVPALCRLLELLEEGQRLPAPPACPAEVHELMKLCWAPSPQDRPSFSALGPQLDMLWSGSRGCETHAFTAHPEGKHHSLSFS

[24] = biological target: MAP kinase-activated protein kinase 5 (Homo sapiens) (UniProt Q8IW41); experiment: Inhibition of wild-type human partial length MAPKAPK5 (M1 to D322 residues) expressed in mammalian expression system assessed as residual activity at 1 uM by Kinomescan method relative to control
[25] = biological target: Serine/threonine-protein kinase Sgk2 (Homo sapiens) (UniProt Q9HBY8); experiment: Inhibition of wild-type human partial length SGK2 (L54 to C427 residues) expressed in mammalian expression system assessed as residual activity at 1 uM by Kinomescan method relative to control
Chain of Serine/threonine-protein kinase Sgk2 (Homo sapiens) (Q9HBY8 whole entry, the tested form may be a part): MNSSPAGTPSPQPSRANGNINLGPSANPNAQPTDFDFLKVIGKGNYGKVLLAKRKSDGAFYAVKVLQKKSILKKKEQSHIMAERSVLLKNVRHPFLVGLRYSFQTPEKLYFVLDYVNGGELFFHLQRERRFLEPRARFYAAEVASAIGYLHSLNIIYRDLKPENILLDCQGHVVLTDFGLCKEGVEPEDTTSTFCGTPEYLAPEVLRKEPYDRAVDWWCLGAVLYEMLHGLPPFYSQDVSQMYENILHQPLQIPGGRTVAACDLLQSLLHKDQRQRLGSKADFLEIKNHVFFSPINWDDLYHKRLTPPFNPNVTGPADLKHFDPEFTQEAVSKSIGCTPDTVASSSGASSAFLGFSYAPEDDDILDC

In the case of `C=CC(=O)Nc1cc(Nc2cc(-c3cccc(NC(=O)c4ccc(C(C)(C)C)cc4)c3C)cn(C)c2=O)ccc1C(=O)N1CCOCC1`, the GI50 [1] is reported as 7.3 µM, the Activity [2] is reported as 95% and the Activity [3] is reported as 98%. For the same compound, the Activity [4] was 98%, the Activity [5] was 96% and the Activity [6] was 98%. The Activity [7] was 94%, the Activity [8] was 100% and the Activity [9] was 93%. It also gave an Activity [10] of 89%, an Activity [11] of 98% and an Activity [12] of 93%. For the same compound, the Activity [13] was 90%, the Activity [14] was 100% and the Activity [15] was 82%. The Activity [16] was 100%, the Activity [17] was 95% and the Activity [18] was 100%. The GI50 (Pfeiffer) was 4.5 µM, the Activity [19] was 91% and the Activity [20] was 87%. For the same compound, the Activity [21] was 95%, the Activity [22] was 99% and the Activity [23] was 79%. For the same compound, the Activity [24] was 100% and the Activity [25] was 93%.

— ChEMBL document CHEMBL4024706 (Eur J Med Chem, 2017)
